Tests used:
[1] = system: Rat Antigen-Induced Cystitis Model; assay: Rat antigen-induced cystitis model: peroxidase activity in bladder extract; type: in vivo, Brown Norway (BN) female rats; conditions: bladder removed after 24 hours, saline group 0%, control group 100%
Experimental: Efficacy of PDE 4 Inhibitors in Rat Antigen-Induced Cystitis Model
Antigen sensitization was carried out by intraperitoneally administering physiological saline containing ovalbumin (OA, 1 mg/ml)-aluminum hydroxide gel (Alum, 20 mg/ml) to Brown Norway (BN) female rats, at a dose of 1 ml per animal for 3 continuous days. After completion of the sensitization, a urethral catheter was attached to each animal under anesthesia, 3% OA/physiological saline was injected into the bladder to induce cystitis, and the resulting animals were used as the control group. Also, a group in which physiological saline was injected into the bladder of each sensitized rat was used as the physiological saline group. A group in which compound A (3 mg/kg), roflumilast (3 mg/kg) or cilomilast (30 mg/kg) was orally administered 1 hour before the intravesical antigen injection was used as a compound A administration group, a roflumilast administration group or a cilomilast administration group. After 24 hours of the intravesical antigen injection, the bladder was removed under pentobarbital anesthesia, and bladder extract was prepared in accordance with the method of Malley et al. (Physiological Genomics, (USA), 2002, vol. 9, no. 1, pp. 5-13). Peroxidase activity in the bladder extract was measured in accordance with the method of Bradley et al. (The Journal of Investigative Dermatology, (England), March 1982, vol. 78, no. 3, pp. 206-9) using human myeloperoxidase (manufactured by Sigma) as the standard, and the results were expressed by defining the peroxidase activity of the physiological saline group as 0%, and the peroxidase activity of the control group as 100%.
When antigen-induced cystitis was caused by carrying out antigen injection into the bladder of each of the sensitized BN rats, and peroxidase activity in the bladder tissue was measured as one of the indexes of cystitis, increase in the peroxidase activity in the bladder tissue was found in the control group. […]

[2] = system: Rat Hydrochloric Acid-Induced Cystitis Model; assay: Rat hydrochloric acid-induced cystitis model: intravesical pressure recording; type: in vivo, Brown Norway (BN) female rats; conditions: 1 mg/kg orally once a day for 10 days after 0.4 N HCl into the bladder; measured after 11 days under urethane anesthesia
Experimental: Efficacy of PDE 4 Inhibitors in Rat Hydrochloric Acid-Induced Cystitis Model
A bladder disorder was induced by attaching a urethral catheter to each of Brown Norway (BN) female rats under ether anesthesia and injecting 0.4 N hydrochloric acid into the bladder (0.15 ml per one rat). Starting on the next of the bladder disorder induction, the compound A (1 mg/kg) or a vehicle (0.5% methyl cellulose aqueous solution) was orally administered once a day for 10 days, and respectively used as a compound A administration group and a control group. Also, a group in which physiological saline was injected into the bladder (0.15 ml per one rat), and the vehicle was orally administered once a day for 10 days starting on the next day, was used as a physiological saline group. After 11 days of the bladder disorder induction, each rat was fixed in the supine position under urethane anesthesia and equipped with a urethral catheter, and via its three-way cock, one end was used as the injection passage and the other end was connected to a pressure transducer (DX-312, manufactured by NIHON KOHDEN). Physiological saline was continuously injected into the bladder (50 μl/min) using an infusion pump (model 22, Harvard), and the intravesical pressure at that time was amplified by a pre-amplifier (AP-621G, manufactured by NIHON KOHDEN) and recorded using a recorder. […] In comparison with this, in the case of the control group, increase in the resting time intravesical pressure was observed, but increase in the bladder contraction pressure at the time of micturition was hardly found, and micturition frequency was high. In the compound A administration group, increase of the resting time intravesical pressure was inhibited, and increase in the intravesical pressure accompanied by the micturition reflex was also observed.

[3] = 3 mg/kg orally 1 hour before intravesical antigen (OA) injection

| SMILES | inhibition of the increase of peroxidase activity in the bladder tissue ([1]; 30 mg/kg orally 1 hour before intravesical antigen (OA) injection) [%] | inhibition of the increase of peroxidase activity in the bladder tissue [1, 3] [%] | increase in the intravesical pressure accompanied by the micturition reflex [2] | increase of the resting time intravesical pressure [2] | interval of the micturition reflex [2] |
| --- | --- | --- | --- | --- | --- |
| COc1ccc([C@]2(C#N)CC[C@@H](C(=O)O)CC2)cc1OC1CCCC1 [cilomilast] | 68 |  |  |  |  |
| CCn1c(=O)c(CCC(=O)O)c(-c2cccc(Cl)c2)c2ccc(C)nc21 [compound A, 3-[4-(3-chlorophenyl)-1-ethyl-7-methyl-2-oxo-1,2-dihydro-1,8-naphthyridin-3-yl]propanoic acid] |  | 72 | observed | inhibited | almost the same as that of the physiological saline administration group |
| O=C(Nc1c(Cl)cncc1Cl)c1ccc(OC(F)F)c(OCC2CC2)c1 [roflumilast] |  | 79 |  |  |  |
